Assay results taken from publication PMC3343456 (Angewandte Chemie (International ed. in English), 2011).

Target: GilOI (Streptomyces griseoflavus, UniProt Q7X2G6)
Assay: cofactor content of the purified enzyme
Assay type: binding

Cc1cc2nc3c(=O)[nH]c(=O)nc-3n(C[C@H](O)[C@H](O)[C@H](O)COP(=O)(O)OP(=O)(O)OC[C@H]3O[C@@H](n4cnc5c(N)ncnc54)[C@H](O)[C@@H]3O)c2cc1C [flavin adenine dinucleotide]
cofactor content of the purified enzyme (Figure S3): GilOI and GilOIV are oxygenases that contain flavin adenine dinucleotide (FAD, Figure S3
